Results on nine compounds are retold here after ChEMBL document CHEMBL3580582, “The Cephalostatins. 23. Conversion of Hecogenin to a Steroidal 1,6-Dioxaspiro[5.5]nonane Analogue for Cephalostatin 11” (2015).

Molecules are shown by their SMILES. ≈ marks a conversion by molar mass, not a printed value.

For orientation: GI50 means the concentration at which growth is held to half of that of the control.

Test system in the first assay: not listed separately
The assay is described as follows: Cytotoxicity against human NCI60 cells.
Conditions: not given
The format is functional.
`C[C@@H]1[C@]2(O[C@H]3C=C4[C@@H]5CC[C@H]6Cc7nc8c(nc7C[C@]6(C)[C@H]5C[C@@H](O)[C@]4(C)[C@]31O)C[C@@H]1CC[C@H]3C4=CC[C@@H]5[C@H](C)[C@@]6(OC[C@]45C(=O)C[C@@H]3[C@@]1(C)C8)OC(C)(C)C[C@H]6O)O[C@](C)(CO)C[C@H]2O` [CEPHALOSTATIN 1] displayed a concentration for 50% growth inhibition (GI50) of 1.8 nM.

For the next assay, the system named is P388. Description: Cytotoxicity against mouse P388 cells assessed as growth inhibition after 48 hrs by coulter particle counter analysis. The format is functional. The conditions noted are these: P388, 48 h, read-out: ED50 (the source's name).
`CC(=O)OC[C@]1(C)CC[C@@]2(O[C@H]3C[C@H]4[C@@H]5CC[C@H]6CC(=O)CC[C@]6(C)[C@H]5CC(=O)[C@]4(C)[C@H]3[C@@H]2C)O1`: the EC50 is greater than 10 µg/mL.
`CC(=O)O[C@H]1CC[C@@]2(C)[C@@H](CC[C@@H]3[C@@H]2CC(=O)[C@@]2(C)[C@H]3C[C@@H]3OC(CCC(C)CCl)=C(C)[C@@H]32)C1` (some centres undefined): the EC50 is greater than 100 µg/mL.
Regarding `CC1=C(CCC(C)CCl)O[C@H]2C[C@H]3[C@@H]4CC[C@H]5CC(=O)CC[C@]5(C)[C@H]4CC(=O)[C@]3(C)[C@@H]12` (some centres undefined), the EC50 was greater than 100 µg/mL.
For `C=C(C)CCC1=C(C)[C@H]2[C@H](C[C@H]3[C@@H]4CC[C@H]5CC(=O)CC[C@]5(C)[C@H]4CC(=O)[C@@]32C)O1`, the EC50 turned out to be 14.5 µg/mL (≈ 35.3 µM).
Still for that read-out and setting: with `CC1=C(CC[C@](C)(O)CO)O[C@H]2C[C@H]3[C@@H]4CC[C@H]5CC(=O)CC[C@]5(C)[C@H]4CC(=O)[C@]3(C)[C@@H]12` the figure was 23.4 µg/mL (≈ 52.6 µM); with `CC(=O)OC[C@@](C)(O)CCC1=C(C)[C@H]2[C@H](C[C@H]3[C@@H]4CC[C@H]5CC(=O)CC[C@]5(C)[C@H]4CC(=O)[C@@]32C)O1`, 19.3 µg/mL (≈ 39.7 µM).

Test system in another assay: not listed separately
The assay is described as follows: Cytotoxicity against human NCI60 cells by SRB assay.
Conditions: not given
It is filed as functional.
With `C[C@@H]1[C@]2(O[C@H]3C=C4[C@@H]5CC[C@H]6Cc7nc8c(nc7C[C@]6(C)[C@H]5C[C@@H](O)[C@]4(C)[C@]31O)C[C@@H]1CC[C@H]3C4=C[C@@H]5O[C@]6(CCC(C)(C)O6)[C@@H](C)[C@@H]5[C@@]4(C)[C@H](O)C[C@@H]3[C@@]1(C)C8)O[C@@](C)(CO)C[C@H]2O`, the GI50 turned out to be 0.48 nM.
On the same count and under the same terms, under `C[C@@H]1[C@]2(O[C@H]3C=C4[C@@H]5CC[C@H]6Cc7nc8c(nc7C[C@]6(C)[C@H]5C[C@@H](O)[C@]4(C)[C@]31O)C[C@@H]1CC[C@H]3C4=C[C@@H]5O[C@]6(CCC(C)(C)O6)[C@@H](C)[C@@H]5[C@@]4(C)[C@H](O)C[C@@H]3[C@@]1(C)C8)O[C@](C)(CO)C[C@H]2O` stands 14 nM.
